PubChem BioAssay (NCI)
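Exposure lasted 48 hours, with cells grown in 96-well plates and compounds tested at five concentrations. At the TGI there is no net growth.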

What was measured:
Experiment in all cases: inhibition of tumour cell growth, NCI panel, 48 h
UACC-62 melanoma = test system: UACC-62 melanoma
SNB-75 CNS = test system: SNB-75 CNS
EKVX NSCLC = test system: EKVX NSCLC
SF-539 CNS = test system: SF-539 CNS
KM12 colon = test system: KM12 colon
CAKI-1 renal = test system: CAKI-1 renal
CCRF-CEM leukemia = test system: CCRF-CEM leukemia
MALME-3M melanoma = test system: MALME-3M melanoma
COLO 205 colon = test system: COLO 205 colon
DU-145 prostate = test system: DU-145 prostate
SK-MEL-5 melanoma = test system: SK-MEL-5 melanoma
SW-620 colon = test system: SW-620 colon
MDA-MB-435 = test system: MDA-MB-435
T-47D breast = test system: T-47D breast
SK-MEL-2 melanoma = test system: SK-MEL-2 melanoma
RPMI-8226 leukemia = test system: RPMI-8226 leukemia
OVCAR-8 ovarian = test system: OVCAR-8 ovarian
786-0 renal = test system: 786-0 renal
NCI/ADR-RES ovarian = test system: NCI/ADR-RES ovarian
HOP-92 NSCLC = test system: HOP-92 NSCLC
HCC-2998 colon = test system: HCC-2998 colon
M14 melanoma = test system: M14 melanoma
PC-3 prostate = test system: PC-3 prostate
SNB-19 CNS = test system: SNB-19 CNS
HCT-15 colon = test system: HCT-15 colon
RXF 393 renal = test system: RXF 393 renal
HS 578T breast = test system: HS 578T breast
A498 renal = test system: A498 renal
NCI-H23 lung = test system: NCI-H23 lung
NCI-H522 lung = test system: NCI-H522 lung
HCT-116 colon = test system: HCT-116 colon
BT-549 breast = test system: BT-549 breast
MDA-N = test system: MDA-N
SK-MEL-28 melanoma = test system: SK-MEL-28 melanoma
HT29 colon = test system: HT29 colon
OVCAR-5 ovarian = test system: OVCAR-5 ovarian
A549 NSCLC = test system: A549 NSCLC
SR leukemia = test system: SR leukemia
K-562 leukemia = test system: K-562 leukemia
MCF7 breast = test system: MCF7 breast
SF-268 CNS = test system: SF-268 CNS
ACHN renal = test system: ACHN renal
IGROV1 ovarian = test system: IGROV1 ovarian
UO-31 renal = test system: UO-31 renal
SN12C renal = test system: SN12C renal
MOLT-4 leukemia = test system: MOLT-4 leukemia
UACC-257 melanoma = test system: UACC-257 melanoma
HL-60(TB) leukemia = test system: HL-60(TB) leukemia
OVCAR-4 ovarian = test system: OVCAR-4 ovarian
LOX IMVI melanoma = test system: LOX IMVI melanoma
HOP-62 NSCLC = test system: HOP-62 NSCLC
SF-295 CNS = test system: SF-295 CNS
NCI-H460 lung = test system: NCI-H460 lung
SK-OV-3 ovarian = test system: SK-OV-3 ovarian
TK-10 renal = test system: TK-10 renal
OVCAR-3 ovarian = test system: OVCAR-3 ovarian
NCI-H226 lung = test system: NCI-H226 lung
MDA-MB-231 breast = test system: MDA-MB-231 breast
U251 CNS = test system: U251 CNS

CCCSc1ccc2[nH]c(N3C(=O)/C(=C/c4ccccc4)N=C3c3ccccc3)cc2c1
TGI (UACC-62 melanoma): > 50 µM
TGI (SNB-75 CNS): > 50 µM
TGI (EKVX NSCLC): > 50 µM
TGI (SF-539 CNS): > 50 µM
TGI (KM12 colon): > 50 µM
TGI (CAKI-1 renal): > 50 µM
TGI (CCRF-CEM leukemia): > 50 µM
TGI (MALME-3M melanoma): > 50 µM
TGI (COLO 205 colon): 24.6 µM
TGI (DU-145 prostate): > 50 µM
TGI (SK-MEL-5 melanoma): 44.4 µM
TGI (SW-620 colon): > 50 µM
TGI (MDA-MB-435): 21.3 µM
TGI (T-47D breast): > 50 µM
TGI (SK-MEL-2 melanoma): 18 µM
TGI (RPMI-8226 leukemia): 42.9 µM
TGI (OVCAR-8 ovarian): > 50 µM
TGI (786-0 renal): > 50 µM
TGI (NCI/ADR-RES ovarian): > 50 µM
TGI (HOP-92 NSCLC): > 50 µM
TGI (HCC-2998 colon): 44.6 µM
TGI (M14 melanoma): > 50 µM
TGI (PC-3 prostate): > 50 µM
TGI (SNB-19 CNS): > 50 µM
TGI (HCT-15 colon): > 50 µM
TGI (RXF 393 renal): > 50 µM
TGI (HS 578T breast): > 50 µM
TGI (A498 renal): > 50 µM
TGI (NCI-H23 lung): > 50 µM
TGI (NCI-H522 lung): 36 µM
TGI (HCT-116 colon): > 50 µM
TGI (BT-549 breast): > 50 µM
TGI (MDA-N): 20.1 µM
TGI (SK-MEL-28 melanoma): > 50 µM
TGI (HT29 colon): > 50 µM
TGI (OVCAR-5 ovarian): > 50 µM
TGI (A549 NSCLC): > 50 µM
TGI (SR leukemia): > 50 µM
TGI (K-562 leukemia): > 50 µM
TGI (MCF7 breast): > 50 µM
TGI (SF-268 CNS): > 50 µM
TGI (ACHN renal): > 50 µM
TGI (IGROV1 ovarian): > 50 µM
TGI (UO-31 renal): > 50 µM
TGI (SN12C renal): > 50 µM
TGI (MOLT-4 leukemia): > 50 µM
TGI (UACC-257 melanoma): > 50 µM
TGI (HL-60(TB) leukemia): 30.2 µM
TGI (OVCAR-4 ovarian): > 50 µM
TGI (LOX IMVI melanoma): > 50 µM

COc1cccc(N=N/C(=N\NC(=O)c2ccc(C)cc2)c2ccc(N(CCC#N)CCC#N)cc2C)c1
TGI (SNB-75 CNS): > 100 µM
TGI (EKVX NSCLC): > 100 µM
TGI (SF-539 CNS): > 100 µM
TGI (KM12 colon): > 100 µM
TGI (CAKI-1 renal): > 100 µM
TGI (MALME-3M melanoma): > 100 µM
TGI (HOP-62 NSCLC): > 100 µM
TGI (COLO 205 colon): > 100 µM
TGI (DU-145 prostate): > 100 µM
TGI (SF-295 CNS): > 100 µM
TGI (SK-MEL-5 melanoma): > 100 µM
TGI (SW-620 colon): > 100 µM
TGI (MDA-MB-435): > 100 µM
TGI (T-47D breast): > 100 µM
TGI (SK-MEL-2 melanoma): > 100 µM
TGI (RPMI-8226 leukemia): > 100 µM
TGI (OVCAR-8 ovarian): > 100 µM
TGI (NCI-H460 lung): > 100 µM
TGI (SK-OV-3 ovarian): > 100 µM
TGI (786-0 renal): > 100 µM
TGI (NCI/ADR-RES ovarian): > 100 µM
TGI (HOP-92 NSCLC): > 100 µM
TGI (TK-10 renal): > 100 µM
TGI (OVCAR-3 ovarian): > 100 µM
TGI (NCI-H226 lung): > 100 µM
TGI (HCC-2998 colon): > 100 µM
TGI (MDA-MB-231 breast): > 100 µM
TGI (M14 melanoma): > 100 µM
TGI (PC-3 prostate): > 100 µM
TGI (SNB-19 CNS): > 100 µM
TGI (HCT-15 colon): > 100 µM
TGI (RXF 393 renal): > 100 µM
TGI (HS 578T breast): > 100 µM
TGI (A498 renal): > 100 µM
TGI (NCI-H23 lung): > 100 µM
TGI (HCT-116 colon): > 100 µM
TGI (BT-549 breast): > 100 µM
TGI (MDA-N): > 100 µM
TGI (SK-MEL-28 melanoma): > 100 µM
TGI (HT29 colon): > 100 µM
TGI (OVCAR-5 ovarian): > 100 µM
TGI (A549 NSCLC): > 100 µM
TGI (SR leukemia): > 100 µM
TGI (K-562 leukemia): > 100 µM
TGI (MCF7 breast): > 100 µM
TGI (SF-268 CNS): > 100 µM
TGI (ACHN renal): > 100 µM
TGI (IGROV1 ovarian): > 100 µM
TGI (U251 CNS): > 100 µM
TGI (UO-31 renal): > 100 µM
TGI (SN12C renal): > 100 µM
TGI (MOLT-4 leukemia): > 100 µM
TGI (UACC-257 melanoma): > 100 µM
TGI (OVCAR-4 ovarian): > 100 µM
TGI (LOX IMVI melanoma): > 100 µM
